These are literature values, as cited in article PMC9298194, “Clinical Pharmacokinetics of Daprodustat: Results of an Absorption, Distribution, and Excretion Study With Intravenous Microtracer and Concomitant Oral Doses for Bioavailability Determination” (Clinical Pharmacology in Drug Development, 2021).

SMILES strings stand for the structures.

The conditions of the data set: healthy volunteers; cited from earlier work.

Regarding `O=C(O)CNC(=O)C1C(=O)N(C2CCCCC2)C(=O)N(C2CCCCC2)C1=O` [Daprodustat], the renal clearance entry is reported as “≈ 0.20 mL/min”.
